pIC50: −log10 of the molar value. Read-outs that look alike come from different tables or passages of the source.
Columns and labels:
[1] = molecular target: PKB, full-length recombinant bovine protein, alpha form (Bos taurus, UniProt Q01314); test: PKB inhibition in vitro enzyme assay (radioactive phosphate incorporation, scintillation counting); format: biochemical; conditions: for pIC50: PKB in vitro enzyme assay, 15 min at room temperature
[2] = test system: A-549 (human lung carcinoma); test: [3H] thymidine uptake cell proliferation assay, A549; format: cell-based; conditions: A459 cells, read-out: Cell Proliferation in A459 IC50 in nm
[3] = for comparison; cited from earlier work
U-87 (human glioma) = test: [3H] thymidine uptake cell proliferation assay, U87; format: cell-based; conditions: for pIC50: U87, read-out: Cell Proliferation IC50 in nm (starred: tested in U7 cells, not U87), read-out: Cell Proliferation IC50 in nm (starred: tested in U7 cells, not A459)
Experimental: Compounds were added to culture at mid-logarithmic growth and incubated for 20 hours. (N=8 for the values+standard errors). […] Cell lines A-549 (human lung carcinoma), B16-F1 (murine melanoma), B16-F10 (murine melanoma), DU-145 (human […] carcinoma), LS-180 (human colon carcinoma), PC3 (human prostate carcinoma), SKOV-3 (human ovarian carcinoma), U-87 (human glioma), and NIH-3T3 (murine embryonic fibroblasts) were all cultured in DMEM supplemented with 10% fetal bovine serum. M3 murine melanoma cells were cultured in DMEM/F12 1:1, and HT-29 human colon carcinoma and LL2 Lewis Lung […] lung carcinoma were cultured in RPMI1640. All the foregoing cell lines were obtained from ATCC. All cells were passaged regularly using 0.25% Trypsin-EDTA in order to maintain cells at exponential growth for various experiments. LS 180 cells were passaged without trypsin and were physically scraped off the culture flasks. In vitro [^3H] thymidine uptake assay. Proliferation can be measured by quantifying the amount of [^3H] thymidine uptake into cells using a β-counter, and therefore is a well-established diagnostic tool to measure DNA synthesis within the cells. […] The cells were allowed to adhere to the plates via incubation at 37° C. in 5% CO2 for 12–14 hours. […] Then, 10 μL of the compound was added to the pre-existing 90 μL per well, and incubated further at 37° C. in 5% CO2 for 20 hours. To measure thymidine incorporation, cells were fixed onto the culture wells by slowly adding ¼^th volume of cold 50% TCA into each well (25 μL to each well) and incubated for 1–2 hours at 4° C. Wells were washed 5 times with tap water to remove any free [^3H] thymidine in the media, and air-dried completely at room temperature. Then, 100 μL of scintillation fluid was added to each well and the activity counted using a Wallac Microbeta Counter.

B16-F1 (murine melanoma) = test: [3H] thymidine uptake cell proliferation assay, B16F1; format: cell-based; conditions: Mus musculus, read-out: Cell Proliferation Effects (IC50 (nM))
[4] = test system: B16-F10 (murine melanoma); test: [3H] thymidine uptake cell proliferation assay, B16F10; format: cell-based; conditions: Mus musculus, read-out: Cell Proliferation Effects (IC50 (nM))
DU-145 (human carcinoma) = test: [3H] thymidine uptake cell proliferation assay, DU145; format: cell-based; conditions: read-out: Cell Proliferation Effects (IC50 (nM))
[5] = test system: HT-29 human colon carcinoma; test: [3H] thymidine uptake cell proliferation assay, HT29; format: cell-based; conditions: read-out: Cell Proliferation Effects (IC50 (nM))
[6] = test system: LL2 Lewis Lung human lung carcinoma; test: [3H] thymidine uptake cell proliferation assay, LL2; format: cell-based; conditions: LL/2, read-out: Cell Proliferation Effects (IC50 (nM))
M3 murine melanoma cells = test: [3H] thymidine uptake cell proliferation assay, M3; format: cell-based; conditions: Mus musculus, read-out: Cell Proliferation Effects (IC50 (nM))
[7] = test system: PC3 (human prostate carcinoma); test: [3H] thymidine uptake cell proliferation assay, PC3; format: cell-based; conditions: PC-3, read-out: Cell Proliferation Effects (IC50 (nM))
[8] = test system: SKOV-3 (human ovarian carcinoma); test: [3H] thymidine uptake cell proliferation assay, SKOV3; format: cell-based; conditions: SK-OV-3, read-out: Cell Proliferation Effects (IC50 (nM))
[9] = test system: NIH-3T3 (murine embryonic fibroblasts); test: [3H] thymidine uptake cell proliferation assay, NIH3T3; format: cell-based; conditions: Mus musculus; NIH3T3, non-tumorigenic cell line; read-out: Cell Proliferation Effects (IC50 (nM))

Chain of PKB, full-length recombinant bovine protein, alpha form (Q01314 whole entry): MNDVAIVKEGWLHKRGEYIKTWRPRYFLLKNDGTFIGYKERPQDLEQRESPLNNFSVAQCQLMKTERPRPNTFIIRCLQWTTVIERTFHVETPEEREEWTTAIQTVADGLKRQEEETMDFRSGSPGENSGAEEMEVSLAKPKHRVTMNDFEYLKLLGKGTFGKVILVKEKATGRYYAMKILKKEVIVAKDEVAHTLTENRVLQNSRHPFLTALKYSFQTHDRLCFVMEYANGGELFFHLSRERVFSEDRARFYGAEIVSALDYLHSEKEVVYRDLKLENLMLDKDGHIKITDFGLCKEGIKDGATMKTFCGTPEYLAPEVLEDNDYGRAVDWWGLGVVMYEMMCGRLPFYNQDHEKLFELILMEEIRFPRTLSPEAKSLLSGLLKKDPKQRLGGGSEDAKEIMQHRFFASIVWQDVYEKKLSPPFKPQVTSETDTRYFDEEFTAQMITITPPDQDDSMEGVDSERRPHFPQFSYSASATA

**Q.** With `O=C1c2ccccc2-c2nccnc21` [KP-23172-016] as the compound, how does the pIC50 [1] read?
**A.** < 4.00

**Q.** What does the source list for `N/N=C1/c2ccccc2-c2nc3nnnn3nc21` [KP-23172-023]?
**A.** pIC50 [1]: < 4.00; pIC50 [2]: 6.30

**Q.** With `Clc1ccc(COC(Cn2ccnc2)c2ccc(Cl)cc2Cl)c(Cl)c1` (centres unmarked) [miconazole] as the compound, how does the “1:1 binding constant (reported in the literature)” value [3] read?
**A.** 363

**Q.** With `O=C1c2ccccc2-c2nc3c(O)nc(O)nc3nc21` [KP-23172-004] as the compound, how does the pIC50 [1] read?
**A.** < 4.00

**Q.** And the pIC50 [2]?
**A.** < 5.00

**Q.** With `O=C(O)c1nc2c(nc1C(=O)O)-c1ccccc1C2=O` [KP-23172-021] as the compound, how does the pIC50 [1] read?
**A.** < 4.00

**Q.** And the pIC50 [2]?
**A.** < 5.00

**Q.** With `Oc1cccc2nc3c(nc12)CCc1ccccc1-3` [KP-23172-012] as the compound, how does the pIC50 [1] read?
**A.** < 4.00

**Q.** With `O=C1c2ccccc2-c2nc3cc4ccccc4cc3nc21` [KP-23172-026] as the compound, how does the pIC50 [1] read?
**A.** < 4.00

**Q.** Which results are given for `O=C1c2ccccc2-c2nc3c(O)ncnc3nc21` [KP-23172-009]?
**A.** pIC50 [1]: < 4.00; pIC50 [2]: < 5.00

**Q.** With `Cn1c(=O)c2nc3c(nc2n(C)c1=O)C(=O)c1ccccc1-3` [KP-23172-005] as the compound, how does the pIC50 [1] read?
**A.** < 4.00

**Q.** And the pIC50 [2]?
**A.** < 5.00

**Q.** Which results are given for `Cc1ccc2nc3c(nc2c1)C(=O)c1ccccc1-3` [KP-23172-029]?
**A.** pIC50 [1]: < 4.00; pIC50 [2]: < 5.00

**Q.** With `O=C1c2ccccc2-c2nc3c4ccccc4c4ccccc4c3nc21` [KP-23172-31] as the compound, how does the pIC50 [1] read?
**A.** < 4.00

**Q.** With `c1ccc(N/N=C2\C(=N/Nc3ccccc3)Nc3ccccc32)cc1` [KP-23172-025] as the compound, how does the pIC50 [1] read?
**A.** < 4.00

**Q.** What does the source list for `O=C(O)c1ccc2nc3c(nc2c1)-c1ccccc1C3=O` [KP-23172-002]?
**A.** pIC50 [1]: < 4.00; pIC50 [2]: < 5.00

**Q.** With `N#CC(=O)N/N=C1/c2ccccc2-c2nc3nnnn3nc21` [KP-23172-027] as the compound, how does the pIC50 [1] read?
**A.** < 4.00

**Q.** What about the pIC50 [2] of the same compound?
**A.** 6.30

**Q.** With `c1ccc2c(c1)[nH]c1nn3nnnc3nc12` [KP-23172-018] as the compound, how does the pIC50 [1] read?
**A.** < 4.00

**Q.** What about the pIC50 (U-87 (human glioma)) of the same compound?
**A.** < 5.00

**Q.** With `O=C1c2ccccc2-c2nc3cc(Cl)c(Cl)cc3nc21` [KP-23172-006] as the compound, how does the pIC50 [1] read?
**A.** < 4.00

**Q.** What about the pIC50 [2] of the same compound?
**A.** < 5.00

**Q.** With `COc1ccc2c(c1)-c1nc3nnnn3nc1C2=O` [KP-23172-030] as the compound, how does the pIC50 [1] read?
**A.** 4.70

**Q.** And the pIC50 [2]?
**A.** 7.34

**Q.** With `Cc1cc2nc3c(nc2cc1C)-c1ccccc1/C3=N\Nc1ccccc1` [KP-23172-017] as the compound, how does the pIC50 [1] read?
**A.** < 4.00

**Q.** With `O=c1c2ccccc2c2nc3c(=S)nc(S)c3nc12` [KP-23172-022] as the compound, how does the pIC50 [1] read?
**A.** < 4.00

**Q.** And the pIC50 (U-87 (human glioma))?
**A.** 5.30

**Q.** With `c1ccc2c(c1)CCc1nc3nnnn3nc1-2` [KP-23172-011] as the compound, how does the pIC50 [1] read?
**A.** < 4.00

**Q.** With `Cc1cc2nc3c(nc2cc1C)-c1ccccc1CC3` [KP-23172-013] as the compound, how does the pIC50 [1] read?
**A.** < 4.00

**Q.** With `Oc1ncnc2nc3c(nc12)CCc1ccccc1-3` [KP-23172-010] as the compound, how does the pIC50 [1] read?
**A.** < 4.00

**Q.** With `O=C1c2ccccc2-c2nc3c(O)cccc3nc21` [KP-23172-001] as the compound, how does the pIC50 [1] read?
**A.** < 4.00

**Q.** And the pIC50 [2]?
**A.** < 5.00

**Q.** With `c1ccc(N/N=C2/c3ccccc3-c3nc4nnnn4nc32)cc1` [KP-23172-024] as the compound, how does the pIC50 [1] read?
**A.** < 4.00

**Q.** And the pIC50 [2]?
**A.** < 5.00

**Q.** With `Cc1ccc2nc3c(nc2c1)-c1ccccc1C3=O` [KP-23172-028] as the compound, how does the pIC50 [1] read?
**A.** < 4.00

**Q.** And the pIC50 [2]?
**A.** < 5.00

**Q.** For `O=C1c2ccccc2-c2nn3nnnc3nc21` [KP-17483], which “PKB inhibition in in vitro enzyme assay (in words)” value [1] is on record?
**A.** found to inhibit PKB

**Q.** What about the pIC50 [1] of the same compound?
**A.** 4.82

**Q.** And the pIC50 [2]?
**A.** < 5.00

**Q.** What about the IC50 (B16-F1 (murine melanoma)) of the same compound?
**A.** 80 nM

**Q.** And the IC50 [4]?
**A.** 750 nM

**Q.** And the IC50 (DU-145 (human carcinoma))?
**A.** 50 nM

**Q.** And the IC50 [5]?
**A.** 500 nM

**Q.** And the IC50 [6]?
**A.** 750 nM

**Q.** And the IC50 (M3 murine melanoma cells)?
**A.** 30 nM

**Q.** What about the IC50 [7] of the same compound?
**A.** 250 nM

**Q.** And the IC50 [8]?
**A.** 300 nM

**Q.** And the IC50 (U-87 (human glioma); U-87 MG, U87, read-out: Cell Proliferation Effects (IC50 (nM)))?
**A.** 50 nM

**Q.** What about the IC50 [9] of the same compound?
**A.** 200 nM

**Q.** With `Cc1cc2nc3c(nc2cc1C)-c1ccccc1C3=O` [KP-23172-007] as the compound, how does the pIC50 [1] read?
**A.** < 4.00

**Q.** What about the pIC50 [2] of the same compound?
**A.** < 5.00

**Q.** With `N#Cc1nc2c(nc1C#N)-c1ccccc1C2=O` [KP-23172-019] as the compound, how does the pIC50 [1] read?
**A.** < 4.00

**Q.** What about the pIC50 (U-87 (human glioma)) of the same compound?
**A.** < 5.00

**Q.** With `O=C(c1ccccc1)c1ccc2nc3c(nc2c1)-c1ccccc1C3=O` [KP-23172-003] as the compound, how does the pIC50 [1] read?
**A.** < 4.00

**Q.** And the pIC50 [2]?
**A.** < 5.00

**Q.** With `O=C1c2cc3ccccc3cc2-c2nc3nnnn3nc21` [KP-23172-020] as the compound, how does the pIC50 [1] read?
**A.** < 4.00

**Q.** And the pIC50 [2]?
**A.** 7.00

**Q.** With `c1ccc2c(c1)Cc1nn3nnnc3nc1-2` [KP-23172-008] as the compound, how does the pIC50 [1] read?
**A.** < 4.00

**Q.** And the pIC50 [2]?
**A.** < 5.00

**Q.** With `O=C1c2ccccc2-c2nc3c(nc21)CCCC3` [KP-23172-015] as the compound, how does the pIC50 [1] read?
**A.** < 4.00

**Q.** What about the pIC50 [2] of the same compound?
**A.** < 5.00

From patent US7196083B2, “Heteropolycyclic inhibitors of protein kinases” (priority 2000, dated 2007)
